Results from patent US20150238579A1, “METHODS FOR ASSEMBLING A PRODUCT FOR MODULATING AN IMMUNOMODULATORY RESPONSE IN HUMANS” (INVESTFOOD, LLC, priority 2014, published 2015).

Key:
THP-1 cells = experiment: Cell viability (MTT assay), THP-1; type: cell-based, human; conditions: THP-1, concentrations up to 25 μM
Jurkat cells = experiment: Cell viability (MTT assay), Jurkat; type: cell-based, human; conditions: concentrations up to 25 μM
[1] = tested on: human acute monocytic leukemia cell line THP-1; experiment: IL-1β production in LPS/PMA-activated THP-1 cells (ELISA); type: cell-based; conditions: THP-1, 24 h pre-incubation with 0.1 to 25 μM PTSO, then 1 μg/ml LPS and 1 μM PMA, FIG. 3
Procedure: (§1) The effects of different concentrations of PTSO on cytokine production (IL-1β and IL-6) in the human acute monocytic leukemia cell line THP-1 activated by lipopolysaccharide (LPS) and phorbol 12-myristate 13-acetate (PMA) were evaluated. Of note, IL-1β and IL-6 cytokines have been reported to play a key role in the activated immune response that takes place in different inflammatory and/or immune conditions.
The human acute monocytic leukemia cell line THP-1 was obtained from the Cell Culture Unit of the University of Granada (Granada, Spain) (ECACC reference number: 88081201). These cells were cultured in Roswell Park Memorial Institute (RPMI) 1640 medium (Sigma, St Louis, Mo., USA) supplemented with 10% fetal bovine serum (Sigma), 2 mM glutamine and 0.05 mM mercaptoethanol in a humidified 5% carbon dioxide (CO2) atmosphere at 37° C. The cultured cells were seeded onto 24-well plates at a density of 5×10^5 cells/ml and pre-incubated for twenty four (24) hours with the different concentrations of the test compound (ranging from 0.1 to 25 μM of PTSO), and then stimulated with 1 μg/ml LPS and 1 μM phorbol 12-myristate 13-acetate (PMA). […]

[2] = tested on: human T cell line JURKAT E6.1; experiment: IFN-γ production in ionomycin/PMA-stimulated JURKAT E6.1 cells (ELISA); type: cell-based; conditions: JURKAT E6.1, 2 and 24 h pre-incubation with 0.1 to 25 μM PTSO, then 40 nM ionomycin and 0.5 μM PMA, FIG. 6
Procedure: The human T cell line JURKAT E6.1 was obtained from the Cell Culture Unit of the University of Granada (Granada, Spain) (ECACC reference number: 88042803). Cells from the human T cell line JURKAT E6.1 were cultured in RPMI 1640 (Sigma) supplemented with 10% fetal bovine serum (Sigma), 2 mM glutamine and 0.05 mM mercaptoethanol in a humidified 5% CO2 atmosphere at 37° C. The cultured cells from the human T cell line JURKAT E6.1 were seeded onto 24-well plates at the concentration of 500,000 cells/ml and pre-incubated for 2 and 24 hours with the different concentrations of the test compound (ranging from 0.1 to 25 μM of PTSO), and then stimulated with 40 nM ionomycin and 0.5 μM of PMA. After twenty four hours (24 hours), the supernatants were collected and centrifuged at 1,000 g for 10 min, and stored at −80° C. for the determination of IFN-γ levels by ELISA (GE Healthcare).

[3] = tested on: human epithelial colorectal adenocarcinoma cells (CACO-2); experiment: IL-8 production in IL-1β-activated CACO-2 cells (ELISA); type: cell-based; conditions: Caco-2, 24 h pre-incubation with 0.1 to 25 μM PTSO, then 1 ng/ml IL-1β, FIG. 5
Procedure: The effects of different concentrations of PTSO on cytokine production (IL-8) in the epithelial cell line human epithelial colorectal adenocarcinoma cells (CACO-2) activated by IL-1β were evaluated. IL-8 acts as a neutrophil attractant, which participates in the neutrophil infiltration that occurs in mucosal sites affected by an inflammatory process.
The human colonic adenocarcinoma cell line CACO-2 was obtained from the Cell Culture Unit of the University of Granada (Granada, Spain) (ECACC reference number: 86010202). Cells from the human colonic adenocarcinoma cell line CACO-2 were cultured in RPMI 1640 (Sigma) supplemented with 10% fetal bovine serum (Sigma), 2 mM glutamine and 0.05 mM mercaptoethanol in a humidified 5% CO2 atmosphere at 37° C. The cultured cells were seeded onto 24-well plates until confluence and pre-incubated for twenty-four hours (24 hr) with the different concentrations of the test compound (ranging from 0.1 to 25 μM of PTSO), and then stimulated with 1 ng/ml IL-1β. […] The effects of the different concentrations of PTSO on cell viability were assessed by using the methylthiazol terazolium (MTT) assay (Promega), following the same protocol of incubation of the test compound similar to that described above.

CACO-2 cells = experiment: Cell viability (MTT assay), CACO-2; type: cell-based, human; conditions: CACO-2, concentrations up to 25 μM
Procedure: The human colonic adenocarcinoma cell line CACO-2 was obtained from the Cell Culture Unit of the University of Granada (Granada, Spain) (ECACC reference number: 86010202). Cells from the human colonic adenocarcinoma cell line CACO-2 were cultured in RPMI 1640 (Sigma) supplemented with 10% fetal bovine serum (Sigma), 2 mM glutamine and 0.05 mM mercaptoethanol in a humidified 5% CO2 atmosphere at 37° C. The cultured cells were seeded onto 24-well plates until confluence and pre-incubated for twenty-four hours (24 hr) with the different concentrations of the test compound (ranging from 0.1 to 25 μM of PTSO), and then stimulated with 1 ng/ml IL-1β. After twenty four hours (24 hr), the supernatants were collected and centrifuged at 1,000 g for 10 min, and stored at −80° C. for the determination of IL-8 levels by ELISA (GE Healthcare). The effects of the different concentrations of PTSO on cell viability were assessed by using the methylthiazol terazolium (MTT) assay (Promega), following the same protocol of incubation of the test compound similar to that described above.

[4] = tested on: human acute monocytic leukemia cell line THP-1; experiment: IL-6 production in LPS/PMA-activated THP-1 cells (ELISA); type: cell-based
Procedure: as §1
The human acute monocytic leukemia cell line THP-1 was obtained from the Cell Culture Unit of the University of Granada (Granada, Spain) (ECACC reference number: 88081201). These cells were cultured in Roswell Park Memorial Institute (RPMI) 1640 medium (Sigma, St Louis, Mo., USA) supplemented with 10% fetal bovine serum (Sigma), 2 mM glutamine and 0.05 mM mercaptoethanol in a humidified 5% carbon dioxide (CO2) atmosphere at 37° C. The cultured cells were seeded onto 24-well plates at a density of 5×10^5 cells/ml and pre-incubated for twenty four (24) hours with the different concentrations of the test compound (ranging from 0.1 to 25 μM of PTSO), and then stimulated with 1 μg/ml LPS and 1 μM phorbol 12-myristate 13-acetate (PMA). After twenty-four hours, the supernatants were collected and centrifuged at 1,000 g for 10 min, and then stored at −80° C. for the determination of IL-1β and IL-6 levels by an enzyme-linked immunosorbent assay (ELISA) (GE Healthcare, Little Chalfont, UK).

CCCSS(=O)(=O)CCC [PTSO, 1-propylsulfonylsulfanylpropane]
cell viability (THP-1 cells): did not significantly affect the viability | cell viability (Jurkat cells): did not significantly affect the viability | production of IL-1β [1]: reduce the production of IL-1β in a dose-dependent manner | production of interferon gamma (IFN-γ) [2]: modulating immune function on the production of interferon gamma (IFN-γ) | production of IL-8 cytokine [3]: demonstrated immunomodulatory activity on the production of IL-8 cytokine | cell viability (CACO-2 cells): did not significantly affect the viability | production of IL-6 ([4]; THP-1, 24 h pre-incubation with 0.1 to 25 μM PTSO, then 1 μg/ml LPS and 1 μM PMA, 24 h, FIG. 4): can modulate the production of IL-6 | production of IL-6 at 0.1 µM ([4]; THP-1 cells, at 0.1 µM): can increase the production of IL-6 | production of IL-6 at more than 1 mM ([4]; THP-1 cells, starting from more than 1 mM dose): a clear immunosuppressive effect is observed
